Measured values taken from patent US12673038B2, “Antimycotic methoxyflavone and fluconazole combination for inhibiting cryptococcus” (Karl-Franzens-Universität Graz, priority 2019, dated 2026).
In brackets after ≈: the same amount, converted by molar mass.

Tests used:
S. cerevisiae BY4741 [1] = assay: Clonogenic survival assay (CFU plating); type: cell-based, Saccharomyces cerevisiae; settings: 200 μM 5-MF, day 3 after treatment, untreated control 100%
Experimental: S. cerevisiae BY4741 cells were grown in SMD minimal media to mid-log phase and then treated with the indicated concentrations of 5-MF; control cells were treated with the same amount of solvent (DMSO). (A) Clonogenicity was assayed by plating 500 cells on YPD agar plates and colony forming units (CFUs) were counted to calculate survival rates. (B) Yeast cells were analyzed for cell death markers via AnnV/PI co-staining using flow cytometry. (C) The accumulation of reactive oxygen species was monitored by dihydrotethidium (DHE) to ethidium (Eth) conversion using flow cytometry. Assays in (A-C) were performed on day 3 after treatment. […] Data was analyzed by one-way ANOVA and corrected for multiple comparison using a Bonferroni post-hoc test. ns: not significant, * p<0.05, *** p<0.001, **** p<0.0001. […] Yeast strains were streaked on YPD agar plates and allowed to grow for two days at 28° C. or 30° C., plates were then stored for up to one week at 4° C. […] Survival upon treatment with substances or combinations was analyzed by plating serial dilutions of treated cultures onto YPD agar plates. Plates were incubated for two days at 28° C., colony forming units (CFUs) were counted and survival was calculated compared to the untreated control.

Candida albicans = settings: according to CN 105 669 625 A; cited from earlier work
S. cerevisiae BY4741 [2] = assay: ROS accumulation by DHE to ethidium conversion (flow cytometry); type: cell-based, Saccharomyces cerevisiae; settings: day 3 after treatment
Experimental: S. cerevisiae BY4741 cells were grown in SMD minimal media to mid-log phase and then treated with the indicated concentrations of 5-MF; control cells were treated with the same amount of solvent (DMSO). (A) Clonogenicity was assayed by plating 500 cells on YPD agar plates and colony forming units (CFUs) were counted to calculate survival rates. (B) Yeast cells were analyzed for cell death markers via AnnV/PI co-staining using flow cytometry. (C) The accumulation of reactive oxygen species was monitored by dihydrotethidium (DHE) to ethidium (Eth) conversion using flow cytometry. Assays in (A-C) were performed on day 3 after treatment. […] Data was analyzed by one-way ANOVA and corrected for multiple comparison using a Bonferroni post-hoc test. ns: not significant, * p<0.05, *** p<0.001, **** p<0.0001. […] Accumulation of ROS was determined by dihydroethidium (DHE) staining as described for PI staining, using a 100 ng/mL DHE solution (Sigma, Germany) in PBS. After staining cells were sedimented again and resuspended in PBS to avoid dye deposition. For each sample, at least 30,000 cells were analyzed using flow cytometry (LSRII Fortessa, BD; Ex: 488 nm, Em: 585 nm).

C. glabrata BG2 = assay: MIC determination, CLSI protocol M27-A3, OD490; type: cell-based, Candida glabrata; settings: Nakaseomyces glabratus; C. glabrata BG2 planktonic growth, mean±SEM
C. glabrata BG2 biofilms = assay: Biofilm inhibition concentration (BIC), XTT staining; type: cell-based, Candida glabrata; settings: Nakaseomyces glabratus, BG2BIOFILMS, C. glabrata BG2 biofilm formation, mean±SEM, read-out: BIC-50

SMILES: COc1cccc2oc(-c3ccccc3)cc(=O)c12 [5-MF, 5-methoxyflavone]
- yeast survival (clonogenic assay, CFUs) (S. cerevisiae BY4741 [1]): 31%
- synergistic antifungal effect with fluconazole (Candida albicans): does not show such synergistic effect
- accumulation of reactive oxygen species (DHE to Eth conversion) (S. cerevisiae BY4741 [2]): causes accumulation of reactive oxygen species
- MIC50 (C. glabrata BG2): 202 ± 35.6 µM (≈ 50.9 µg/mL)
- IC50 (C. glabrata BG2 biofilms): 224 ± 15.6 µM
